Publication PMC7278776, “Multidrug Resistance Modulation Activity of Silybin Derivatives and Their Anti-Inflammatory Potential” (Antioxidants, 2020)

How the values were obtained:
[1] = Viability of A2780/DOX cells (resazurin); settings: human
Method in brief: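 A2780/DOX cells in DMEM/10% FBS were pretreated with test compounds at 10, 20 and 30 µM, then exposed to doxorubicin (0.6–20 µM) for 72 h. Viability was read by resazurin fluorescence (560/590 nm) after 2 h.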

ABCF2 [2] = assay: ABCF2 mRNA expression (real-time PCR); type: cell-based, human; settings: A2780/DOX, 10 µM combined with doxorubicin at IC25, 48 h
Description: (§1) The A2780/DOX cell line was seeded into 5 cm Petri dishes with DMEM medium at 1 × 10^5 cell/mL. After 24 h, the dishes were washed with PBS and new DMEM medium supplemented with doxorubicin (at concentration equal to IC25) and samples (10 µM) were added. After 48 h of treatment, the cells were washed with PBS and harvested using the standard trypsin-EDTA procedure. The harvested cells were centrifuged (3200× g; 10 min, 4 °C). The supernatant was discarded, and the pellets were washed with 1.5 mL of cooled PBS (5400× g; 10 min, 4 °C). The washing step was repeated with 1 mL of PBS and the cells were centrifuged again (10,000× g; 3 min, 4 °C). Afterwards, the pellets were resuspended in 1 mL of Trizol (Invitrogen, Carlsbad, CA, USA) and transferred into pre-cooled RNase-free microfuge tubes. The samples were stored at −80 °C.
(§2) A Quant-iT RiboGreen RNA Assay Kit (Invitrogen) was used to determine the RNA concentration using the Infinite M200 plate reader (Tecan, Männedor, Switzerland). The cDNA was prepared from 0.5 µg of total RNA using a RevertAid First Strand Synthesis cDNA Kit (MBI Fermentas, Vilnius, Lithuania). The amplification of the ubiquitin C gene fragment was used to determine the quality of cDNA.
(§3) The experiment was performed using the ViiA7 Real-Time polymerase chain reaction (PCR) System (Life Technologies, Camarillo, CA, USA) with a 384-well block. Before quantitative real-time PCR, the master mix was prepared by mixing 2 µL of 8 × diluted cDNA, 1.75 µL of RNase free water, 1 µL of 5 × HotFIREPol Probe quantitative PCR Mix Plus (Solis Biodyne, Tartu, Estonia) and 0.25 µL of specific 20 × TaqMan Gene Expression Assay (Life Technologies), giving 5 µL of final reaction volume. Cycling parameters were: initial hold at 50 °C for 2 min and denaturation at 95 °C for 10 min, followed by 45 cycles consisting of denaturation at 95 °C for 15 s and annealing/extension at 60 °C for 1 min. After each extension phase, the fluorescence values were acquired. Duplicate samples were used for measurement and samples with a standard deviation of duplicates > 1.0 cycle threshold (Ct) were re-analyzed. The real time PCR procedure was maintained according to MIQE (Minimum information for publication of quantitative real-time PCR experiments) guidelines. The software REST 2009 (Qiagen, Hilden, Germany) served to compare relative transcript levels of genes in the cell line.

ABCG1 = ABCG1 mRNA expression (real-time PCR); type: cell-based, human; settings: A2780/DOX
Description: as §1, §2, §3

ABCA2 = ABCA2 mRNA expression (real-time PCR); type: cell-based, human; settings: 10 µM, 48 h, without doxorubicin; for ABCA2 Expression Difference / ABCA2 Treated vs. Untreated: A2780/DOX
ABCB2 = ABCB2 mRNA expression (real-time PCR); type: cell-based, human; settings: A2780/DOX, 10 µM, 48 h, without doxorubicin
ABCB9 = ABCB9 mRNA expression (real-time PCR); type: cell-based, human; settings: A2780/DOX, 10 µM, 48 h, without doxorubicin
ABCF2 [3] = assay: ABCF2 mRNA expression (real-time PCR); type: cell-based, human; settings: A2780/DOX, 10 µM, 48 h, without doxorubicin
ABCB7 = ABCB7 mRNA expression (real-time PCR); type: cell-based, human; settings: A2780/DOX, 10 µM, 48 h, without doxorubicin
Description: as §1, with “After 24 h, the dishes were washed with PBS and new DMEM medium supplemented with doxorubicin (at concentration equal to IC25) and samples (10 µM) were added.” left out
(§4) A Quant-iT RiboGreen RNA Assay Kit (Invitrogen) was used to determine the RNA concentration using the Infinite M200 plate reader (Tecan, Männedor, Switzerland). […]
(§5) The experiment was performed using the ViiA7 Real-Time polymerase chain reaction (PCR) System (Life Technologies, Camarillo, CA, USA) with a 384-well block. Before quantitative real-time PCR, the master mix was prepared by mixing 2 µL of 8 × diluted cDNA, 1.75 µL of RNase free water, 1 µL of 5 × HotFIREPol Probe quantitative PCR Mix Plus (Solis Biodyne, Tartu, Estonia) and 0.25 µL of specific 20 × TaqMan Gene Expression Assay (Life Technologies), giving 5 µL of final reaction volume. […] After each extension phase, the fluorescence values were acquired. […]

ABCE1 = ABCE1 mRNA expression (real-time PCR); type: cell-based, human; settings: A2780/DOX, 10 µM, 48 h, without doxorubicin
Description: as §1, §2, §3

[4] = parameters: method as in PMID 15465345, PMID 19138735; settings: cited from earlier work
[5] = parameters: method as in PMID 15465345, PMID 19138735; settings: cited from earlier work; remark: listed apart in the source
ABC superfamily genes = assay: Expression profile of ABC superfamily genes (real-time PCR); type: cell-based, human; settings: 10 µM, 48 h, without doxorubicin
Description: as §1, with “After 24 h, the dishes were washed with PBS and new DMEM medium supplemented with doxorubicin (at concentration equal to IC25) and samples (10 µM) were added.” left out
as §4, §5

ABCA7 = ABCA7 mRNA expression (real-time PCR); type: cell-based, human; settings: A2780/DOX, 10 µM, 48 h, without doxorubicin
Description: as §1, with “After 24 h, the dishes were washed with PBS and new DMEM medium supplemented with doxorubicin (at concentration equal to IC25) and samples (10 µM) were added.” left out
as §4, §5

ABCB8 = ABCB8 mRNA expression (real-time PCR); type: cell-based, human; settings: A2780/DOX, 10 µM, 48 h, without doxorubicin
Description: as §1, with “After 24 h, the dishes were washed with PBS and new DMEM medium supplemented with doxorubicin (at concentration equal to IC25) and samples (10 µM) were added.” left out
as §2
as §5, with “acquired. Duplicate samples were used for measurement and samples with a standard deviation of duplicates > 1.0 cycle threshold (Ct) were re-analyzed. The real time PCR procedure was maintained according to MIQE (Minimum information for publication of quantitative real-time PCR experiments) guidelines.” for “acquired.”

ABCD4 = ABCD4 mRNA expression (real-time PCR); type: cell-based, human; settings: A2780/DOX, 10 µM, 48 h, without doxorubicin
Description: as §1, §2
as §5, with “acquired. Duplicate samples were used for measurement and samples with a standard deviation of duplicates > 1.0 cycle threshold (Ct) were re-analyzed. The real time PCR procedure was maintained according to MIQE (Minimum information for publication of quantitative real-time PCR experiments) guidelines.” for “acquired.”

ABCB3 = ABCB3 mRNA expression (real-time PCR); type: cell-based, human; settings: A2780/DOX, 10 µM, 48 h, without doxorubicin
Description: as §1, with “After 24 h, the dishes were washed with PBS and new DMEM medium supplemented with doxorubicin (at concentration equal to IC25) and samples (10 µM) were added.” left out
as §4, §5

ABCC2 (MRP2) = assay: ABCC2 mRNA expression (real-time PCR); type: cell-based, human; settings: 10 µM, 48 h, without doxorubicin
Description: as §1, with “After 24 h, the dishes were washed with PBS and new DMEM medium supplemented with doxorubicin (at concentration equal to IC25) and samples (10 µM) were added.” left out
as §2
as §5, with “acquired. Duplicate samples were used for measurement and samples with a standard deviation of duplicates > 1.0 cycle threshold (Ct) were re-analyzed. The real time PCR procedure was maintained according to MIQE (Minimum information for publication of quantitative real-time PCR experiments) guidelines.” for “acquired.”

[6] = 10 µM combined with doxorubicin at IC25, 48 h
[7] = 10 µM, 48 h, without doxorubicin

Compound	ABCF2 Expression Difference (ABCF2 [2])	ABCG1 Expression Difference (ABCG1; [6])	downregulation of ABCA2 expression (ABCA2) [%]	ABCA2 Expression Difference (ABCA2)	ABCA2 Treated vs. Untreated (ABCA2)	ABCB2 Expression Difference (ABCB2)	ABCB9 Expression Difference (ABCB9)	ABCF2 Expression Difference (ABCF2 [3])	viability at 20 µM [1] [%]	ABCB7 Expression Difference (ABCB7)	ABCE1 Expression Difference (ABCE1)	ABCB8 Expression Difference (ABCB8)	ABCD4 Expression Difference (ABCD4)	ABCG1 Expression Difference (ABCG1; [7])	further results
COc1cc([C@H]2Oc3cc(-c4oc5cc(O)cc(O)c5c(=O)c4O)ccc3O[C@@H]2CO)ccc1O [Dehydrosilybin A, 2,3-dehydrosilybin A]	1.044	2.714	22	0.778	DOWN	1.905	1.317	1.198	–	–	–	–	–	–	viability at 50 µM [1]: < 80%
COc1cc(C2Oc3cc(-c4oc5cc(O)cc(O)c5c(=O)c4O)ccc3OC2CO)ccc1O (centres unmarked) [Dehydrosilybin AB, 2,3-dehydrosilybin]	1.343	1.826	–	–	–	2.341	1.669	1.418	< 80	1.463	1.408	–	–	–	radical scavenging compared to silybin [4]: 25 fold; inhibition of lipid peroxidation compared to silybin [5]: 10 fold
COc1cc([C@@H]2Oc3cc(-c4oc5cc(O)cc(O)c5c(=O)c4O)ccc3O[C@H]2CO)ccc1O [Dehydrosilybin B, 2,3-dehydrosilybin B]	1.226	2.931	11	0.891	DOWN	1.625	–	1.334	< 80	–	–	–	–	–	–
COc1cc([C@H]2Oc3cc([C@H]4Oc5cc(O)cc(O)c5C(=O)[C@@H]4O)ccc3O[C@@H]2CO)ccc1O [Silybin A, silybin A]	1.242	–	–	1.078	–	1.141	–	–	–	–	–	–	–	–	–
COc1cc(C2Oc3cc([C@H]4Oc5cc(O)cc(O)c5C(=O)[C@@H]4O)ccc3OC2CO)ccc1O (some centres unmarked) [Silybin AB, silybin]	1.463	1.559	–	2.583	–	–	2.091	1.326	–	1.803	1.558	1.503	1.882	2.416	number of ABC genes with increased expression (ABC superfamily genes): 20; ABCA7 Expression Difference (ABCA7): 2.704
COc1cc([C@@H]2Oc3cc([C@H]4Oc5cc(O)cc(O)c5C(=O)[C@@H]4O)ccc3O[C@H]2CO)ccc1O [Silybin B, silybin B]	–	–	–	0.520	DOWN	–	0.392	0.307	–	–	0.391	0.413	0.370	0.303	number of ABC genes with altered expression (ABC superfamily genes; out of 42 tested): 24; ABCB3 Expression Difference (ABCB3): 0.365; ABCB3 Treated vs. Untreated (ABCB3): DOWN; ABCB8 Treated vs. Untreated (ABCB8): DOWN; downregulation of ABCC2 (MRP2) expression (ABCC2 (MRP2)): 66%; ABCC2 Expression Difference (ABCC2 (MRP2); A2780/DOX): 0.341; ABCC2 Treated vs. Untreated (ABCC2 (MRP2); A2780/DOX): DOWN; ABCD4 Treated vs. Untreated (ABCD4): DOWN; ABCE1 Treated vs. Untreated (ABCE1): DOWN; ABCG1 Treated vs. Untreated (ABCG1; [7]): DOWN; ABCB9 Treated vs. Untreated (ABCB9): DOWN; ABCF2 Treated vs. Untreated (ABCF2 [3]): DOWN
